Patent US7034005B2, “Use of agent for suppressing infection and proliferation of human immunodeficiency syndrome virus” (The Kitasato Institute, priority 2002, dated 2006)

Key:
[1] = test system: HIV-1BAL strain in M type macrophage (M-MΦ) derived from human monocytes; experiment: Proliferation of HIV-1 in M-MΦ: p24 protein in culture supernatant by sandwich ELISA; format: cell-based; conditions: for suppression of viral generation (p24 in culture supernatant) in M-MΦ: 30 μM, HIV-1BAL, 14 days of culture, compared with DMSO control (FIG. 13); for viral proliferation at 300 μM in M-MΦ: also observed in DMSO control, ascribed to cytotoxicity of DMSO; for concentration dependence of suppressive action on HIV-1BAL in M-MΦ: various concentrations (FIG. 16); for p24 protein in culture supernatant of oligonucleotide pretreated M-MΦ: day 4, 7 and 10 after HIV-1BAL infection, compared with lipofectin control (L) (FIG. 10)
Method: (§1) Macrophages derived from monocytes were prepared by culturing the recovered monocytes in the presence of M-CSF (macrophage colony-stimulating factor) (10^4 U/ml, provided by Morinaga Milk Co.), granulocytes and granulocyte-macrophage colony-stimulating factor, GM-CSF) (500 U/ml, provided by Japan Scheling Plough Co., Osaka, or purchased from R & S Genzyme-TECHNE Inc.) with RPMI1640 medium added with FCS10% (Nissui Seiyaku Co., Tokyo) for 7–8 days.
(§2) The macrophage prepared by differential induction of M-CSF from human monocytes is designated as M type macrophage (M type MΦ or M-MΦ) and the macrophage prepared by differential induction of GM-CSF from human monocytes is designated as GM type macrophage (GM type MΦ or GM-MΦ) Further, alveolar macrophage (alveolar MΦ or A-MΦ) was prepared as follows. Cells in the alveolar lavage liquid obtained from the alveolar lavage of healthy volunteers were recovered, suspended and adhered to plastics, then the non-adhered cells were washed out and the remained adhered cells were designated as the alveolar MΦ.
(§3) Infection of HIV-1 to macrophage was performed as follows. Macrophage directed viral strains, HIV-1JR-FL and HIV-1BAL, were infected for 2 hours in contact with M-MΦ, GM-MΦ and A-MΦ (adjusted to 2.5×10^5/well, Flacon No3043: Becton Dickinson Labware, Inc. U.S.)at low concentration (p24 antigen titer 50 ng/ml, TCID50=3000/ml virus to final concentration at 100 pg/ml), and non-adsorbed virus to the macrophage was washed out, and cultured with adding fresh medium. In case of the medium with M-MΦ, M-CSF was added (10^4 U/ml), and that of the medium with GM-MΦ, GM-CSF was added (500 U/ml).
(§4) Proliferation of virus was examined with the released viral particles in the culture supernatant after the infection by the sandwich ELISA using two types of anti-p24 antibody (Nu24 and 10B5^13). The following JAM62 and JAM65 were used as LTR (HIV long terminal repeat)-gap gene primer. The following JAM63 and JAM 64 were used as the internal primer for the nested PCR. • JAM62: • 5′-[…]-3′ (SEQ ID NO: 1) • JAM65: • 5′-[…]-3′ (SEQ ID NO: 2) • JAM63: • 5′-GTGTOACTCTGGTAACTAGAGATCC-3′ (SEQ ID NO: 3) • JAM64: • 5′-[…]-3′ (SEQ ID NO: 4) (1-4) Assay of Expression of Tyrosine Kinase Hck Protein and Transcription Factor C/EBPβ Protein
(§5) In order to show growth suppression effect of the present invention, among macrolide derivatives, EM, EM201, EM202, EM703, CAM, EM722, EM730, EM732, EM736, EM734, EM735, EM747, EM748, EM743, EM746, EM750 or EM751 was dissolved in DMSO with each 100 mM concentration, and used in dilution with the medium thereafter. A control group was M-MΦ treated only with DMSO used for dissolving macrolide derivatives.
(§6) M-MΦ and GM-M Φ were subjected to contact infection with HIV-1BAL strain for 2 hours, added 30 μM of EM, EM201, EM202, EM703, CAM,EM722, EM730, EM732, EM736, EM734, EM735, EM747, EM748, EM743, EM746, EM750 or EM751, incubated for 14 days and amount of p24 protein in the cultured supernatant was assayed in the time-dependent manner.

[2] = test system: HIV-1BAL strain in GM type macrophage (GM-MΦ) derived from human monocytes; experiment: Proliferation of HIV-1 in GM-MΦ: p24 protein in culture supernatant by sandwich ELISA; format: cell-based; conditions: 30 μM, HIV-1BAL, all assay points up to 14 days, similar to DMSO control (FIG. 14)
Method: as §1, §2, §3, §4, §5, §6

[3] = test system: HIV-1BAL strain infected M-MΦ; experiment: Cytopathy (MGC formation) of HIV-1 infected M-MΦ; format: cell-based, human; conditions: 30 μM, HIV-1BAL (FIG. 17)
Method: Formation of cell cluster and cell fusion was observed from the 2nd day of the incubation only in virus producing M-MΦ and formation of multinucleatic giant cells were recognized from the culture day 4–7 [refer to FIG. 2(A)]. On the other hand, in GM-MΦ without generation of virus, nomorphological changes were observed [refer to FIG. 2(B)].
M-MΦ was subjected to contact infection with HIV-1BAL strain for 2 hours, added 30 μM of EM, EM201, EM202, EM703 or CAM, incubated and observed the cell morphology.

[4] = test system: tyrosine kinase Hck protein; experiment: Expression of tyrosine kinase Hck protein in M-MΦ by Western blotting; format: cell-based, human; conditions: for expression of tyrosine kinase Hck protein in HIV-1 infected M-MΦ: 30 μM, compared with DMSO control (FIG. 18); for expression of tyrosine kinase Hck protein in HIV-1 infected M-MΦ / expression of tyrosine kinase Hck protein in oligonucleotide pretreated M-MΦ after infection: day 2 after HIV-1BAL infection; for expression of tyrosine kinase Hck protein in oligonucleotide treated M-MΦ before infection: probe 2 μM for 24 hours, further 24 hours incubation, compared with lipofectin control (L) (FIG. 9)
Description: Expression of tyrosine kinase Hck protein and transcription factor C/EBPβ protein in macrophage was examined after solubilizing the macrophage in SDS-PAGE sample buffer, performing 10% SDS-polyacrylamide electrophoresis, transferring the protein on the gel to immobilon P membrane (Millipore Inc. U.S.) and checking antibodies against these proteins by Western blotting. Antibody to tyrosine kinase Hck protein (N-30) and antibody to C/EBPβ (C-19) were purchased from Santacluse Inc. (U.S.). Western blotting was detected by Amersham ELC Regent (Amersham International plc, Buckinghamshire, UK). Strength of bands was expressed by PSL (photostimulating luminescence) value (A/mm^2).
These probes were dissolved in the serum free RPMI1640 medium, in which lipofectin (Life Technology Inc., U.S.) was dissolved at 5 μM concentration, at room temperature for 30 minutes, added with RPMI1640 medium, which contains 10% FCS, to the macrophage (final concentration 2 μM) and incubated at 37° C. for 24 hours. Thereafter, cells were washed with the medium, added the RPMI1640 medium containing 10% FCS without oligonucleotide, further cultured for 24 hours, and then infected with HIV-1.
Consequently, M-MΦ was subjected to contact infection with HIV-1BAL strain for 2 hours, added 30 μM of EM, EM201, EM202, EM703 or CAM, incubated and expression of tyrosine kinase Hck protein was observed on day 2 after the infection by Western blotting.

p38MAPK = experiment: Tyrosine phosphorylation (activation) of p38MAPK in HIV-1 infected M-MΦ by Western blotting; format: cell-based, human; conditions: 30 μM, day 2 of culture, HIV-1BAL infected M-MΦ, compared with DMSO (FIG. 19(A))
Method: (§7) P38MAPK and ERK1/2 activation were determined using P38MAPK antibody, anti-ERK1/2 antibody, anti-tyrosine phosphorylation P38MAPK antibody and anti-tyrosine phosphorylation ERK1/2 antibody (New England Biolabs, Inc. U.S.), and phosphorylation reaction of these molecules was determined by Western blotting.
Thirty μM of EM, EM201, EM202, EM703 or CAM were added to M-MΦ infected with HIV-1BAL strain, tyrosine phosphorylation of p38MAPK was detected on day 2 of the culture by Western blotting. […] In any groups, total amount of p38MAPK (total sum of phosphorylated and non-phosphorylated p38MARK) was equal.

ERK1/2 = experiment: Tyrosine phosphorylation (activation) of ERK1/2 in HIV-1 infected M-MΦ by Western blotting; format: cell-based, human; conditions: 30 μM, HIV-1BAL infected M-MΦ, compared with DMSO (FIG. 19(B))
Method: as §7
In any groups, total amount of ERK1/2 (total sum of phosphorylated and non-phosphorylated p38MARK) was equal [refer to FIG. 19(B)].

| Compound | proliferation of virus in M-MΦ at 3 μM ([1]; 3 μM) | suppression of viral generation (p24 in culture supernatant) in M-MΦ [1] | viral proliferation at 300 μM in M-MΦ [1] | concentration dependence of suppressive action on HIV-1BAL in M-MΦ [1] | viral generation in GM-MΦ [2] | cytopathic effect (MGC formation) in HIV-1 infected M-MΦ [3] | expression of tyrosine kinase Hck protein in HIV-1 infected M-MΦ [4] | tyrosine phosphorylation of p38MAPK (p38MAPK) | tyrosine phosphorylation of ERK1/2 (ERK1/2) | p24 protein in culture supernatant of oligonucleotide pretreated M-MΦ [1] | expression of tyrosine kinase Hck protein in oligonucleotide pretreated M-MΦ after infection [4] | expression of tyrosine kinase Hck protein in oligonucleotide treated M-MΦ before infection [4] |
| --- | --- | --- | --- | --- | --- | --- | --- | --- | --- | --- | --- | --- |
| 11-(1′-hydroxypropyl)-3-[2,6-dideoxy-3-C-methyl-α-L-ribo-hexopyranosyl]oxy]-5-[(3,4,6-trideoxy-3-(dimethylamino)-β-D-xylo-hexopyranosyl)oxy]-2,4,6,8,11,14-hexamethyl-10,13,15-tri-oxatricyclo[9.2.1.1.^9.6]-pentadecane-1-one [EM201] | inhibited almost completely the proliferation of virus | almost no p24 was detected | viral proliferation at 300 μM was observed | concentration dependent manner | almost no viral generation was recognized | no cytopathic effect such as MCG formation was observed | strongly suppressed | significantly decreased | promotion of tyrosine phosphorylation of ERK1/2 was recognized |  |  |  |
| Hck-NS: Phosphorothioate-modified non-sense oligonucleotide probe, 5′-CCATATTTCCCGCTCOCGTG-3′ (SEQ ID NO: 7) (CCATATTTCCCGCTCGCGTG; all phosphorothioate, sugars by position and methylation of C not given here) |  |  |  |  |  |  |  |  |  | time-dependent increase in p24 protein was recognized | no suppression of expression of tyrosine kinase Hck protein was recognized | suppression of expression of tyrosine kinase Hck protein was recognized |
| CCC1OC(=O)C(C)C(O[C@H]2C[C@@](C)(OC)[C@@H](O)[C@H](C)O2)C(C)C(O[C@@H]2O[C@H](C)C[C@H](N(C)C)[C@H]2O)C(C)(O)CC(C)C(=O)C(C)C(O)C1(C)O (stereo partly shown) [EM, reference compound] |  | suppression of viral generation was recognized, though not so strong | viral proliferation at 300 μM was observed | exhibited suppression of viral production depending upon drug concentration | almost no viral generation was recognized | formation of MGC was slightly recognized | the suppression of tyrosine kinase Hck protein was observed, though not so strong | recognized to decrease, though not so strong | weakly recognized as same in the control group |  |  |  |
| Hck-S: Phosphorothioate-modified sense oligonucleotide probe of Hck, 5′-GCCAGOATOGGGTCGATCAA-3′ (SEQ ID NO: 6) |  |  |  |  |  |  |  |  |  | time-dependent increase in p24 protein was recognized | no suppression of expression of tyrosine kinase Hck protein was recognized | suppression of expression of tyrosine kinase Hck protein was recognized |
| CC[C@H]1OC(=O)[C@H](C)[C@@H](O[C@H]2C[C@@](C)(OC)[C@@H](O)[C@H](C)O2)[C@H](C)[C@@H](O[C@@H]2O[C@H](C)C[C@H](N(C)C)[C@H]2O)[C@@]2(C)C[C@@H](C)[C@@]3(O[C@@]1(C)[C@H](O)[C@H]3C)O2 [EM202, 6,9,12-Anhydroerythromycin A] |  | suppression of viral generation was recognized, though not so strong | viral proliferation at 300 μM was observed | exhibited suppression of viral production depending upon drug concentration | almost no viral generation was recognized | formation of MGC was slightly recognized | the suppression of tyrosine kinase Hck protein was observed, though not so strong | recognized to decrease, though not so strong | weakly recognized as same in the control group |  |  |  |
